Measured values as given in US10501516B2, “Peptide compound” (TAKEDA PHARMACEUTICAL COMPANY LIMITED, priority 2016, dated 2019).
Square brackets hold non-standard residues; d marks the D form. Side chains are listed from the residue outwards. Peptide text beside a SMILES is read from it. * marks the point of attachment. NMeY = CN[C@@H](Cc1ccc(O)cc1)C(=O)O; Palmitoyl = CCCCCCCCCCCCCCCC(=O)*; αMeF = C[C@](N)(Cc1ccccc1)C(=O)O; Iva = CC[C@](C)(N)C(=O)O; Aib = CC(C)(N)C(=O)O

How the values were obtained:
[1] = test system: Male ob/ob mice; assay: Repeated dosing study in ob/ob mice; format: in vivo, mouse; conditions: for ALT / AST / TC / TG: plasma, mean ± SD
Procedure: Male ob/ob mice (9 weeks old) were divided into the groups based on the data of body weight, food intake, and plasma parameters. Vehicle or P41 was subcutaneously administered once a day for 4 weeks. Body weight and food intake were monitored during the study. Compounds were dissolved in 10% DMSO/saline. After the study, blood was collected and plasma parameters were measured. At day 29, the animals were sacrificed.
Plasma glucose, triglyceride (TG), total cholesterol (TC), aspartate aminotransferase (AST), and alanine aminotransferase (ALT) were analyzed by Autoanalyzer 7180 (Hitachi High-Technologies Corporation, Japan). Blood glycated hemoglobin (GHb) was measured with the automated GHb analyzers (HLC-723G8, Tosoh, Tokyo, Japan). Liver triglyceride content was measured as follows: a piece of tissue was homogenized in saline and lipid was extracted by the addition of hexane:isopropanol (3:2) solution. The lipid phase was collected, dried and then dissolved in isopropanol. The concentration of triglyceride was measured by Triglyceride E-test (Wako Pure Chemical Industries, Ltd, Japan) and triglyceride content per g liver was calculated. Plasma insulin was measured with ELISA Assay kit (Shibayagi Co. Ltd., Japan).

[2] = test system: Male KKA^y mice; assay: Repeated administration in KKA^y mice; format: in vivo, mouse; conditions: for ALT / AST / TC / TG: plasma, mean ± SD
Procedure: Male KKA^y mice (10 weeks old) were divided into the groups based on the data of body weight, food intake, glycated hemoglobin (GHb), and plasma parameters. P41 was subcutaneously administered once a day for 4 weeks. Compounds were dissolved in 10% DMSO/saline. Body weight and food intake were monitored during the study. After the study, blood was collected and GHb and plasma parameters were measured. The animals were sacrificed, and the liver and the adipose tissues were dissected and weighed. Lipid was extracted from a piece of liver tissue and liver triglyceride (TG) content was measured.
Plasma glucose and TG were measured by Autoanalyzer 7180 (Hitachi High-Technologies Corporation, Japan). Blood GHb was measured with the automated GHb analyzers (HLC-723G8, Tosoh, Tokyo, Japan). Plasma insulin was measured with ELISA Assay kit (Shibayagi Co. Ltd., Japan). Liver TG content was measured as follows: a piece of tissue was homogenized in saline and lipid was extracted by the addition of hexane:isopropanol (3:2) solution. The lipid phase was collected, dried and then dissolved in isopropanol. The concentration of TG was measured by Triglyceride E-test (Wako Pure Chemical Industries) and TG content per g liver was calculated.

[3] = 10, 30 and 100 nmol/kg s.c. once a day for 4 weeks
[4] = 10 nmol/kg s.c. once a day for 4 weeks
[5] = 30 nmol/kg s.c. once a day for 4 weeks
[6] = 100 nmol/kg s.c. once a day for 4 weeks

`CCCCCCCCCCCCCCCC(=O)NCC(=O)NCC(=O)NCC(=O)NCC(=O)NCCCC[C@H](NC(=O)[C@H](CC(=O)O)NC(=O)[C@H](CO)NC(=O)[C@@H](NC(=O)[C@](C)(Cc1ccccc1)NC(=O)[C@@H](NC(=O)CNC(=O)[C@H](CCC(=O)O)NC(=O)C(C)(C)NC(=O)[C@H](Cc1ccc(O)cc1)NC)[C@@H](C)O)[C@@H](C)O)C(=O)N[C@@H](CO)C(=O)N[C@H](C(=O)NC(C)(C)C(=O)N[C@@H](CC(C)C)C(=O)N[C@@H](CCC(=O)O)C(=O)N[C@@H](CCCCN)C(=O)N[C@@H](CCC(N)=O)C(=O)N[C@@H](CCCNC(=N)N)C(=O)N[C@@H](CCC(N)=O)C(=O)N[C@@](C)(CC)C(=O)N[C@@H](CCC(=O)O)C(=O)N[C@@H](Cc1ccccc1)C(=O)N[C@H](C(=O)N[C@@H](CCCNC(=N)N)C(=O)N[C@@H](Cc1c[nH]cn1)C(=O)N[C@@H](CC(C)C)C(=O)N[C@@H](CC(C)C)C(=O)N[C@@H](CC(N)=O)C(=O)N[C@@H](CCCCN)C(=O)NC(C)(C)C(=O)N[C@H](C(=O)N[C@@H](CCCNC(=N)N)C(=O)N[C@@H](CCC(N)=O)C(=O)N[C@@H](CCCNC(=N)N)C(=O)N[C@@H](Cc1ccc(O)cc1)C(N)=O)[C@@H](C)O)C(C)C)[C@@H](C)CC` [Example 41] (H-[NMeY][Aib]EGT[αMeF]TSDK([Gly-Gly-Gly-Gly-Palmitoyl])SI[Aib]LEKQRQ[Iva]EFVRHLLNK[Aib]TRQRY-NH2) was tested, and the GHb [1, 3] was “significant decrease”, the “body weight and cumulative food intake” value [1, 3] was “dose-dependent body weight and cumulative food intake reduction” and the plasma glucose levels [1, 3] was “significant decrease”. The plasma insulin levels [1, 3] was “Dose-dependent decrease”, the “liver and mesenteric, epididymal, and inguinal adipose tissue weight, and liver TG content” value ([1]; 10, 30 and 100 nmol/kg s.c. once a day for 4 weeks, dose-dependent) was “decreased” and the ALT [1, 4] was 50.6 ± 23.8 U/L. It also gave an AST [1, 4] of 82.3 ± 25.0 U/L, a TC [1, 4] of 137.0 ± 12.7 mg/dL and a TG [1, 4] of 52.4 ± 13.0 mg/dL. It also gave an ALT [1, 5] of 38.3 ± 9.3 U/L, an AST [1, 5] of 83.5 ± 21.5 U/L and a TG [1, 5] of 51.6 ± 14.2 mg/dL. It also gave an ALT [1, 6] of 41.6 ± 10.1 U/L, an AST [1, 6] of 77.7 ± 13.1 U/L and a TC [1, 6] of 136.8 ± 6.1 mg/dL. The TG [1, 6] was 46.9 ± 12.9 mg/dL, the “decrease in body weight compared with vehicle group” value (shortened to “decrease in body weight”) [2, 4] was 4.2% and the “decrease in body weight” value [2, 5] was 9.8%. For the same compound, the “decrease in body weight” value [2, 6] was 30.1%, the “GHb, PG and plasma insulin levels” value [2, 3] was “dose-dependent and significant decrease” and the liver tissue weight [2, 3] was “Comparable reduction”. For the same compound, the ALT [2, 4] was 31.3 ± 9.7 U/L, the AST [2, 4] was 53.4 ± 11.9 U/L and the TC [2, 4] was 139.3 ± 19.0 mg/dL. For the same compound, the TG [2, 4] was 357.1 ± 76.9 mg/dL, the ALT [2, 5] was 24.9 ± 2.1 U/L and the AST [2, 5] was 48.9 ± 8.6 U/L. For the same compound, the TC [2, 5] was 155.9 ± 20.1 mg/dL, the TG [2, 5] was 210.1 ± 53.3 mg/dL and the ALT [2, 6] was 21.7 ± 7.6 U/L. The AST [2, 6] was 52.6 ± 7.3 U/L, the TC [2, 6] was 131.4 ± 14.0 mg/dL and the TG [2, 6] was 138.1 ± 54.4 mg/dL.
